This passage reports EC50 results from EP4567031A1, “HPK1 INHIBITOR, PREPARATION METHOD THEREFOR, AND USE THEREOF” (Beijing Earthwise Technology Co., Ltd., priority 2022, dated 2024).

The subject of the first assay is human Pan T cells. Kind of assay: Human Pan T cell IL-2 ELISA. It counts as cell-based. As to conditions: Anti-CD3 and Anti-CD28, 48 hours, supernatant IL-2 ELISA, read-out: IL-2 release, EC50. On the procedure:
A compound was dissolved in DMSO to 10 mM, and then diluted three-fold with DMSO to 9 dosages in a 96-well plate. Then, 10 µL of the diluted compound sample was transferred to a 96-well plate with 90 µL of cell culture medium, and the plate was shaken for 5 minutes. Then, 5 µL of the diluted compound sample was transferred to a 96-well plate with 120 µL of cell culture medium, and the plate was shaken for 5 minutes. According to the experimental design diagram, 50 µL of the diluted compound sample was transferred to a cell plate. Final concentrations of the compound in this assay were 10000.00, 5000, 2500, 1250, 625, 312.5, 156.25, 78.125 and 39.063 nM.
The assay was conducted in a 96-well plate. On the first day of the assay, Anti-CD3 was added to the 96-well plate and incubated in a 4 °C refrigerator overnight. On the second day of the assay, human Pan T cells were recovered, centrifuged and counted. The cell density was adjusted to 1*10^6 cells/ml. Then, 100 µL of cells were added to the 96-well plate washed with PBS and added with Anti-CD3; according to the experimental design diagram, 50 µL of diluted Anti-CD28 and 50 µL of the diluted compound were added to each well, centrifuged, and the cell plate was placed and incubated in an incubator for 48 hours; after 48 hours, the plate was centrifuged and the supernatant was collected for IL-2 ELISA.
The signal value of light absorption was converted into a multiple. Multiple = sample value/the average value of control wells. The average value of control wells refers to the value measured in wells with DMSO added. EC50 values were calculated by XLFit (version 5.3.1.3) in Excel. Equation: Y=Bottom + (Top-Bottom) / (1 + (EC50/X) ^ HillSlope). Table 6. Results of cellular activity of the compounds
Background: In an ELISA, binding on a coated surface is turned into a signal by an enzyme label.
`COC1CCc2c(-c3cc4c(c5c3CNC5=O)Nc3ccc(N5CCOCC5)cc3C4(C)C)cncc21` (single isomer, unassigned) [Example 203]: the EC50 – broadly, the concentration that produces a half-maximal response – was 95 nM. On the same count and under the same terms, the result for `CC1(C)c2cc(N3CCOCC3)ccc2Nc2c1cc(-c1cnc3n1CCCC3O)c1c2C(=O)NC1` (single isomer, unassigned) [Example 228] reads 11 nM.

Still in this assay, the particulars now being: Homo sapiens, T-cell, 48 h, Anti-CD3 and Anti-CD28, supernatant IL-2 ELISA, read-out: IL-2 release, EC50.
Take `COC1CCCn2c(-c3cc4c(c5c3CNC5=O)Nc3cc(C)c(N5CCOCC5)cc3C4(C)C)cnc21` (single isomer, unassigned) [Example 150]: the EC50 amounted to 30.6 nM. Still for that read-out and setting: the result for `CC1(C)c2cc(N3CCOC(CO)C3)ccc2Nc2c1cc(-c1cnn3cccnc13)c1c2C(=O)NC1` (centres unmarked) [Example 118] reads 7.32 nM; that for `COc1nccn2c(-c3cc4c(c5c3CNC5=O)Nc3ccc(C5CNC(=O)C5)cc3C4(C)C)cnc12` (centres unmarked) [Example 255], 5 nM. Consider `COC1CCCn2c(-c3cc4c(c5c3CNC5=O)Nc3ccc(N5CCOCC5C)cc3C4(C)C)cnc21` (single isomer, unassigned) [Example 155], for which the EC50 was determined as 26.6 nM. As to `COCC1CN(c2ccc3c(c2)C(C)(C)c2cc(-c4cnc5c(OC)nccn45)c4c(c2N3)C(=O)NC4)CCO1` (centres unmarked) [Example 195], the EC50 was found to be 3.7 nM.

In the case of `CC1(O)CCN(c2ccc3c(c2)C(C)(C)c2cc(-c4cnc5nc(C(F)F)ccn45)c4c(c2N3)C(=O)NC4)CC1` [Example 256], the EC50 was 16 nM. Same read-out and setting: the result for `CC1(C)c2cc(N3CCOCC3)ccc2Nc2c1cc(-c1cnc3n1CCCC3OC1COC1)c1c2C(=O)NC1` (single isomer, unassigned) [Example 220] reads 50 nM; that for `COc1ccn2c(-c3cc4c(c5c3CNC5=O)Nc3ccc(N5CCOCC5)cc3C4(C)C)cnc2c1` [Example 186], 7.9 nM; that for `COc1nccn2c(-c3cc4c(c5c3CNC5=O)Nc3ccc(N5CCN6CCOCC6C5)cc3C4(C)C)cnc12` (centres unmarked) [Example 194], 4.3 nM. Regarding `CN(C)C(=O)c1ccc2c(c1)C(C)(C)c1cc(-c3cnc4nc(C(F)F)ccn34)c3c(c1N2)C(=O)NC3` [Example 257], the EC50 was 154 nM. Turning to `CC1(C)c2cc(N3CCOCC3)ccc2Nc2c1cc(-c1cnc3c(OC4CNC4)nccn13)c1c2C(=O)NC1` [Example 224], the EC50 was 33 nM.

Consider `CC1(C)c2cc(N3CC(CO)OCC3=O)ccc2Nc2c1cc(-c1cnn3cccnc13)c1c2C(=O)NC1` (centres unmarked) [Example 115], for which the EC50 was 91.5 nM. In the case of `CC1(C)c2cc(N3CCOC(C(C)(C)O)C3)ccc2Nc2c1cc(-c1cnc3cc(C(F)F)ccn13)c1c2C(=O)NC1` (single isomer, unassigned) [Example 129], the EC50 is 18.2 nM. With `CC1(C)c2cc(N3CCOCC3)ccc2Nc2c1cc(-c1cnc3cc(C(F)F)ccn13)c1c2C(=O)NC1` [Example 161], the EC50 amounted to 6.36 nM. Still for that read-out and setting: the same measure for `Cn1c(-c2cc3c(c4c2CNC4=O)Nc2ccc(N4CCOC(C(C)(C)O)C4)cc2C3(C)C)cnc1C1CCOC1` (single isomer, unassigned) [Example 147]: 42.7 nM. Regarding `COC1CCCn2c(-c3cc4c(c5c3CNC5=O)Nc3ccc(N5CCOCC5)cc3C4(C)C)nnc21` (racemic) [Example 120], the EC50 amounted to 66.7 nM.

In the case of `COCC1(O)CCN(c2ccc3c(c2)C(C)(C)c2cc(-c4cnc5c(OC)nccn45)c4c(c2N3)C(=O)NC4)CC1` [Example 200], the EC50 came out at 1.4 nM. Take `COC1CCn2c(-c3cc4c(c5c3CNC5=O)Nc3ccc(N5CCOC(C(C)(C)O)C5)cc3C4(C)C)cnc2C1` (single isomer, unassigned) [Example 142]: the EC50 is 25.1 nM. Still for that read-out and setting: the same measure for `CC1(C)c2cc(N3CCOCC3)ccc2Nc2c1cc(-c1cnc3cc(N4CCC4)ccn13)c1c2C(=O)NC1` [Example 206]: 99 nM. Take `Cc1ccn2c(-c3cc4c(c5c3CNC5=O)Nc3ccc(N5CCOC(C(C)(C)O)C5)cc3C4(C)C)cnc2n1` (single isomer, unassigned) [Example 162]: the EC50 amounted to 6.33 nM. Take `COCC1(O)CCN(c2ccc3c(c2)C(C)(C)c2cc(-c4cnc5n4CCCC5OC)c4c(c2N3)C(=O)NC4)CC1` (single isomer, unassigned) [Example 231]: the EC50 stood at 10.5 nM.
